Assay results from patent publication US20250057876A1, “METHODS FOR TREATING AND/OR PREVENTING LYMPHANGIOGENESIS-ASSOCIATED DISEASES BY USING GOLD NANOCLUSTERS” (MacKay Memorial Hospital, priority 2023, published 2025).

Test system: ISO-induced cardiac injured mice
Assay: Echocardiography in isoproterenol (ISO)-induced heart failure model
Assay type: in vivo, mouse
Settings: co-treatment of MAZ-51 with FANCs in ISO-treated mice, vs ISO+FANC group
Method: Male 7-weeks-old C57BL/6 mice were purchased from BioLasco Inc. (Yilan, Taiwan), The mice were treated with FANCs (20 μM; about 0.57 mg/kg body weight) via an abdominal implant using osmotic pump system on Day 0. Then, the mice were subcutaneously treated with ISO (150 mg/kg) on Day 14. After 14 days from ISO injection, echocardiography was performed on Day 28 to measure the cardiac function of the mice. The animals were then sacrificed, and their hearts were harvested for histological and pathological examination.
The experimental echocardiography for the mice was conducted after the mice were anesthetized with isoflurane (Abbott Laboratories Ltd., England; delivered to achieve a concentration of 1-2% in a combination of oxygen and nitrous oxide mixed at a ratio of 50:50 with air). […] Parameters including tissue Doppler used to determine contractile velocity (TDI-S′), deformation-based circumferential systolic strain measure, and quantitative indices of tissue structure integrated backscatter intensity from dynamic myocardial motions, were used to assess systolic myocardial performance using ECG-gated off-line analysis on the EchoPac Workstation.

CN(C)c1ccc(/C=C2/C(=O)Nc3ccccc32)c2ccccc12 [MAZ-51, (3E)-3-[[4-(dimethylamino)naphthalen-1-yl]methylidene]-JH-inden-2-one]
effect on FANCs improved cardiac function: abolished
